The source of these data is paper PMC10950963, “Anti-leishmanial activity of Eleutherine plicata Herb. and predictions of isoeleutherin and its analogues” (Frontiers in Chemistry, 2024).

The structures appear in SMILES notation. In brackets after ≈: the same amount, converted by molar mass. Entries after “also recorded” stand apart in the source; their conditions may differ. Where two headings read alike, the source gives them in different places. Bounds are passed on as bounds.

For orientation: CC50 means the concentration that lowers cell viability or growth by half. High values mean lower toxicity to the cells, low ones greater toxicity to the cells. For orientation: IC50 means the concentration needed to halve the response being measured.

For series [1], the system named is amastigotes of L. donovani. The note with it: ref Kaiser et al., 2000; cited from earlier work.
Series [2] in a line: Cytotoxicity to macrophages. It is filed as cell-based, mice. The note with it: BALB/c, mouse, peritoneal macrophages.
The subject of series [3] is Plasmodium falciparum sensitive to chloroquine. Set-up: method as in Vale et al., 2020. The note with it: ref Vale et al., 2020; cited from earlier work.
In series [4] the test system is peritoneal macrophages from BALB/c mice. Kind of series: Cytotoxicity to macrophages. The note with it: peritoneal macrophages from BALB/c mice. The class given is cell-based.
Series [5] concerns Th cells. The arrangement: method as in Hong et al., 2008. The note with it: ref Hong et al., 2008; cited from earlier work.
The test system of series [6] is promastigotes of L. amazonensis. Nature of the series: Inhibition of growth/viability of L. amazonensis promastigotes (MTT). The class given is cell-based. The conditions noted are these: Leishmania amazonensis. The method, then: Inhibition of Leishmania growth was evaluated in vitro by cultivating promastigotes of L. amazonensis in stationary phase (5×10^6 parasites) in the presence of the extract, fractions and isoeleutherin (200–3.125 μg/mL) in 96-well culture plates (Nunc, Nunclon®, Roskilde, Denmark), for 72 h at 26°C. Viability was assessed by measuring the cleavage of MTT [3-(4,5-dimethylthiazol-2-yl)-2,5-diphenyl tetrazolium bromide] (Sigma) ([Ngure et al., 2009]). Absorbances were measured using a multiwell scanning spectrophotometer (Molecular Devices, Spectra Max Plus, Canada) at 490 nm. Amphotericin B (AmpB) was used as a positive control (25–0.3906 μg/mL). The concentration of products required to inhibit 50% of the viability of L. amazonensis (IC50) was determined by applying a sigmoidal regression of the individual concentration response curves of the compounds. The data are representative of independent experiments, carried out in triplicate, which presented similar results ([Mota et al., 2011]).

The subject of series [7] is HepG2. The arrangement: method as in Gomes et al., 2021. The conditions noted are these: exposure for 24 h, compared with EEEp and FDMEp; ref Gomes et al., 2021; cited from earlier work.
The conditions of series [8]: compared with EEEp and FDCMEp, ref Albuquerque et al., 2023, cited from earlier work.
The subject of series [9] is intracellular amastigote forms of L. amazonensis. Kind of series: Anti-amastigote assay in infected murine macrophages (Giemsa count). The note with it: 500, 250 and 125 μg/mL, 72 h. The class given is cell-based, Leishmania amazonensis. The method, then:
Murine macrophages (4 × 10^5 cells) were seeded on round glass coverslips into 24-well culture plates (Nunc) in RPMI 1640 medium (Sigma and Aldrich), supplemented with 20% fetal bovine serum (FBS), 2 mM L-glutamine, penicillin 50 IU/mL, and streptomycin 50 μg/mL, pH 7.4. After 24 h of incubation at 35°C in 5% CO2, promastigotes of L. amazonensis in stationary phase were added to the wells (4 × 10^6 parasites) to promote infection of macrophages, and the cultures were incubated for 4 h at 35°C in 5% CO2. Next, the free parasites were removed by extensive washing with RPMI 1640 medium, and the infected macrophages were quantified and treated with the extract, FA2, FA3, fraction FA4, and isoeleutherin (500–125 μg/mL, each) for 72 h at 35°C in 5% CO2. The negative control consisted of infected macrophages and culture medium. The positive control used AmpB (100–25 μg/mL). Then, coverslips were stained with Giemsa, and the percentage of inhibition of intramacrophage viability of Leishmania was determined by counting the number of amastigotes per 100 macrophages on each coverslip, under a light microscope (×100 magnification). The presented data were performed in triplicate, and the IC50 was determined using GraphPad Prism version 5.04 ([Silva, 2005]).

Series [10] relates to amastigotes of L. amazonensis. Set-up: method as in Cunha-Junior et al., 2011. The note with it: ref Cunha-Junior et al., 2011; cited from earlier work.
Series [11] concerns Allium cepa. The arrangement: method as in Castro et al., 2021a. The conditions noted are these: Allium cepa model, 12.5 μg/mL in 72 h; ref Castro et al., 2021a; cited from earlier work.

On to `O=C1C=C(C2=CC(=O)c3cccc(O)c3C2=O)C(=O)c2c(O)cccc21` [3,3-Bijuglone], for which, in series [1], the “IC50 for amastigotes of L. donovani” value was 15 µg/mL.

Take `CC1=C(C2=C(C)C(=O)c3ccc(OCc4ccccc4)c(O)c3C2=O)C(=O)c2c(ccc(OCc3ccccc3)c2O)C1=O` [6,6-Dibenzyloxy-3,3-bi-plumbagin]: the “IC50 for amastigotes of L. donovani” value in series [1] is 14.2 µg/mL.

Regarding `C[C@@H]1[C@H](O)[C@@H](C)/C=C/C=C/C=C/C=C/C=C/C=C/C=C/[C@H](O[C@@H]2O[C@H](C)[C@@H](O)[C@H](N)[C@@H]2O)C[C@@H]2O[C@](O)(C[C@@H](O)C[C@@H](O)[C@H](O)CC[C@@H](O)C[C@@H](O)CC(=O)O[C@H]1C)C[C@H](O)[C@H]2C(=O)O` [Amphotericin B, reference compound], the CC50 in series [2] was above 100 µg/mL.

On to `COc1cccc2c1C(=O)C1=C(C[C@@H](C)O[C@@H]1C)C2=O` [Isoeleutherin, isoeleutherin], for which, in [3], the “activity in Plasmodium falciparum” value was “active”. In series [4], the “cytotoxicity on macrophages (in words)” value is on record as “did not show cytotoxicity; also recorded: no cytotoxicity”. Further, in series [2], the cytotoxic concentration (CC50) was above 500 µg/mL. Further, the “effect on cytokine production of Th cells” value in series [5] is recorded as “selectively stimulating IFNc production”. For the same compound, the IC50 in series [6] (parasite form not given, sentence on selectivity index, read-out: IC50 against L. amazonensis) is above 200 µg/mL; in series [6] (promastigotes, 72 h at 26°C, MTT, read-out: IC50 against promastigote form of L. amazonensis) it was 25 µg/mL (≈ 91.8 µM). Also, the “cytotoxicity in HepG2” value in series [7] is “the least toxic sample”. In addition, the “genotoxicity / cytotoxicity in the micronucleus test” value in series [8] is “lowest cytotoxicity”; in series [8] (listed as is eleutherin) it was “less genotoxic”. In series [9], the “anti-amastigote activity (number of amastigotes in infected macrophages vs negative control)” value is “No reductions in the number of amastigotes; also recorded: inactive”.

Turning to `O=C1C2=C(C(=O)c3ccccc31)[C@H]1Oc3ccccc3[C@H]1CO2` [LQB-118], the “reduction in the number of amastigotes of L. amazonensis” value in [10] is recorded as “concentration-dependent reduction”.

`COc1cccc2c1C(=O)C1=C(C[C@H](C)O[C@@H]1C)C2=O` [eleutherin]: in [11], the “percentage of chromosomal aberrations” value is given as “higher percentage of chromosomal aberrations than isoeleutherin”.

Regarding `Cc1cc(=O)c2c(C)cc3cc(O)cc(O)c3c2o1` [eleutherinol, reference compound], the “effect on cytokine production of Th cells” value in series [5] was “inhibited the production of IFNc and IL-2”.
